In publication PMC10759609, “A novel PDPN antagonist peptide CY12-RP2 inhibits melanoma growth via Wnt/β-catenin and modulates the immune cells” (Journal of Experimental & Clinical Cancer Research : CR, 2024):

Tests used:
[1] = test system: A875 PDPN overexpression cells; experiment: Wound healing, PDPN-overexpressing A875 cells; format: cell-based; settings: A875 with PDPN overexpression
Procedure: (§1) A375 GFP, A875 GFP, A375 PDPN^−/−, and A875 PDPN^+/+ cells were all seeded in 12-well plates at a density of 5 × 10^5 cells/well. When the cells reached 100% confluence the next day, the straight wound was scraped in each cultured well with a 20 µL pipette tip. Then the cells were washed repeatedly with complete DMEM to remove the cellular debris, and the medium was changed to a low serum medium containing 0.05% FBS. The scratch-treated cells were subsequently cultured for an additional indicated time and imaged at 0 h, 12 h, 24 h and 48 h. Quantification of wound closure was accomplished by measuring the distance between the phase contrast images’ anterior edges of the contralateral surfaces using ImageJ software. As for peptide (CY12-RP2) function experiments, images of phase contrast for A375 GFP and A875 GFP cells were captured at 0 h before peptide administration. The cells were then treated with CY12-RP2 (0 μM, 5 μM, 25 μM) for 24 h or 48 h, and then images were acquired again. Handling of the experimental results were carried out as previously described.
(§2) To confirm whether PDPN could affect migration and invasion of melanoma cells in wnt/β-catenin signaling pathway-dependent manner, A375 cells with PDPN knockdown were treated with a Wnt/β-catenin signaling pathway agonist (SKL2001) and PDPN overexpression A875 cells were treated with an inhibitor (IWR1). […]

[2] = test system: A875 PDPN overexpression cells; experiment: Transwell, PDPN-overexpressing A875 cells; format: cell-based; settings: A875 with PDPN overexpression
Procedure: (§3) For invasion assay, matrigel (Corning, New York, USA) was coated on the upper surface of the upper chamber. The upper chamber was filled with DMEM medium containing 2% FBS, while the lower chamber contained a medium supplemented with 20% FBS. In brief, melanoma cells (A375 GFP, A875 GFP, A375 PDPN^−/−, and A875 PDPN^+/+ cells) were seeded in the upper chamber of the transwell plate (Corning, New York, USA) at about 5 × 10^4 cells/well with the medium as described above. For peptide functionality experiments, A375 and A875 cells were seeded in the upper chamber of the transwell plate at a density of 5 × 10^4 cells/well with various peptide concentrations (0 μM, 5 μM, 25 μM). Transwell inserts were fixed using 4% paraformaldehyde after 48 h cell invasion, and crystalline violet was used for staining. The quantities of invading cells were quantified using ImageJ software (NIH).
as §2

[3] = test system: EMT in A875 PDPN overexpression cells; experiment: Western blot EMT proteins, PDPN-overexpressing A875 cells; format: cell-based
Procedure: (§4) Melanoma cells were cultured in a 60 mm dish with a complete medium and various peptide concentrations (0 μM, 5 μM, 25 μM). Protein was extracted after cells were cultured or treated for 48 h using protein lysis buffer, separated using a 10% or 15% Bis–Tris PAGE gel (Epizyme Biomedical Technology, Shanghai, China), and transferred onto a PVDF membrane (Thermo Fisher Scientific) according to standard techniques. The Western blots were imaged using Bio-rad Chemidoc MP and quantified using ImageJ software (NIH).
(§5) To confirm whether PDPN could affect migration and invasion of melanoma cells in wnt/β-catenin signaling pathway-dependent manner, A375 cells with PDPN knockdown were treated with a Wnt/β-catenin signaling pathway agonist (SKL2001) and PDPN overexpression A875 cells were treated with an inhibitor (IWR1). […] Furthermore, the levels of EMT positively correlated proteins, including N-cadherin, vimentin and snail were all suppressed, while E-cadherin was increased in A375 cells transfected with LV-shPDPN, and these phenomena were reversed following treatment with SKL2001 (Fig. S2E). In contrast, in the A875 cells, the activation of EMT by PDPN overexpression was blocked by IWR1 (Fig. S2E).

[4] = test system: A375 PDPN knockdown cells; experiment: Transwell, PDPN-knockdown A375 cells; format: cell-based; settings: A375 with PDPN knockdown
Procedure: as §3, §2

[5] = test system: A375 PDPN knockdown cells; experiment: Wound healing, PDPN-knockdown A375 cells; format: cell-based; settings: A375 with PDPN knockdown
Procedure: as §1, §2

[6] = test system: EMT proteins in A375 LV-shPDPN cells; experiment: Western blot EMT proteins, PDPN-knockdown A375 cells; format: cell-based
Procedure: as §4, §5

melanoma cells [7] = experiment: Wound healing with SKL2001, melanoma cell lines; format: cell-based; settings: combined with CY12-RP2
Procedure: as §1, with “The cells were then treated with CY12-RP2 (0 μM, 5 μM, 25 μM) for 24 h or 48 h, and then images were acquired again. Handling of the experimental results were carried out as previously described.” left out
(§6) (A) TUNEL analysis of apoptosis was conducted on orthotopic xenografts tumor sections using fluorescence staining. […] (B) Fluorescence staining of Ki67 was carried out on orthotopic xenograft tumor sections.
(§7) The power field scale bar, 100 μm. (C) Serum His-CY12-RP2 levels of the orthotopic xenografts mice treated by various dosage of CY12-RP2 were measured by His-ELISA kit. […]
(§8) kit. (E) Serum ALT, AST, TG, and γ-GT levels of the orthotopic xenografts model were measured by ELISA. […]

melanoma cells [8] = experiment: Transwell invasion with SKL2001, melanoma cell lines; format: cell-based; settings: combined with CY12-RP2
Procedure: as §3, with “(NIH). […]” for “(NIH).”
as §6, §7, §8

[9] = test system: Wnt/β-catenin signaling pathway; experiment: Western blot, EMT and Wnt/β-catenin pathway, melanoma cells; format: cell-based; settings: combined with CY12-RP2; SKL2001 50 μM; Western blot
Procedure: as §4
Fig. S4: The inhibition of cells metastasis and invasion by CY12-RP2 can be […]
(A, B) The inhibition of CY12-RP2 on the migration capacity of melanoma cell lines was reversed by SKL2001 (A). Statistical analysis was performed to determine the migrated distance (B). The power field scale bar, 100 μm. (C, D) Effect of CY12-RP2 on the invasive ability of melanoma cell lines were reversed by SKL2001 (C). […]
as §6, §7, §8

melanoma = settings: in vitro and in vivo; cited from earlier work
Excerpt: Therapeutic peptides are a novel and promising type of anti-cancer drug, due to several important advantages over proteins or antibodies: they are molecularly small, easy to synthesize, and capable of penetrating cell membranes; they also have high biological activity, affinity, chemical diversity, and specificity. Phage display technology is a high-throughput screening technique that greatly amplifies the application of directional evolution techniques for antibody and peptide modification screening, and first described in 1985 by Smith. Phage display inserts th ...

For `O=C(Nc1cccc2cccnc12)c1ccc(N2C(=O)[C@@H]3[C@H](C2=O)[C@@H]2C=C[C@H]3C2)cc1` [IWR1], the “promotion of migration by PDPN overexpression” value [1] was “inhibited”, the “increase of invasion mediated by PDPN overexpression” value [2] was “abrogated” and the “activation of EMT by PDPN overexpression” value [3] was “blocked”.

In the case of `O=C(NCCCn1ccnc1)c1cc(-c2ccco2)on1` [SKL2001], the “decrease of invasion mediated by PDPN knockdown” value [4] is reported as “abrogated”, the “inhibition of migration by PDPN knockdown” value [5] is reported as “abolished” and the “changes of N-cadherin, vimentin, snail and E-cadherin by LV-shPDPN” value [6] is reported as “reversed”. The “effect of SKL2001 on CY12-RP2 inhibition of migration” value (melanoma cells [7]) was “significantly reversed”, the “effect of SKL2001 on CY12-RP2 inhibition of invasion” value (melanoma cells [8]) was “significantly reversed” and the “effect of SKL2001 on CY12-RP2 inhibition of EMT and Wnt/β-catenin signaling” value [9] was “significantly reversed”.

For “[-CSSRTMHHC-] [peptide screened by C7C phage display library]”, the “melanoma growth and invasion” value (melanoma) is listed as “suppress melanoma growth and invasion both in vitro and in vivo”.
